Data on 2 compounds can be found in ChEMBL document CHEMBL5465560, “Selectivity Literature for EUbOPEN Chemogenomic Library” (2024).

In experiment [1] the target is T1, Muscarinic acetylcholine receptor M1 (Homo sapiens) (UniProt P11229).
T1 sequence (whole entry): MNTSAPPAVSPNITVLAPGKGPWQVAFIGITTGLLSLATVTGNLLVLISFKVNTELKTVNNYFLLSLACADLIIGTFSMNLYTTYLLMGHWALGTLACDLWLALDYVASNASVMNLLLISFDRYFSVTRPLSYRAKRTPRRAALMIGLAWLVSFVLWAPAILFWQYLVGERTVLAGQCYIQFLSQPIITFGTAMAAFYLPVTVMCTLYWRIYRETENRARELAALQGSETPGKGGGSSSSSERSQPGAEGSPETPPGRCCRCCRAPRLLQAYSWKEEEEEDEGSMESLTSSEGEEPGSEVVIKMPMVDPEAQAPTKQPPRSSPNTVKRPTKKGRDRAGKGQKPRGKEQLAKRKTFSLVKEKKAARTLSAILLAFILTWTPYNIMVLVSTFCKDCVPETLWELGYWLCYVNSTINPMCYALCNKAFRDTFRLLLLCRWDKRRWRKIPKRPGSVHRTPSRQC
Put plainly: Selectivity interaction (Eurofins Cerep-Panlabs Safety Screen 44 (GPCRS, Transporters, Ion Channels, Nuclear Receptors, other enzymes)) EUB0000878a CHRM1. To be noted: at 10 µM.

Experiment [2] has as its target T2, Muscarinic acetylcholine receptor M2 (Homo sapiens) (UniProt P08172).
T2 sequence (whole entry): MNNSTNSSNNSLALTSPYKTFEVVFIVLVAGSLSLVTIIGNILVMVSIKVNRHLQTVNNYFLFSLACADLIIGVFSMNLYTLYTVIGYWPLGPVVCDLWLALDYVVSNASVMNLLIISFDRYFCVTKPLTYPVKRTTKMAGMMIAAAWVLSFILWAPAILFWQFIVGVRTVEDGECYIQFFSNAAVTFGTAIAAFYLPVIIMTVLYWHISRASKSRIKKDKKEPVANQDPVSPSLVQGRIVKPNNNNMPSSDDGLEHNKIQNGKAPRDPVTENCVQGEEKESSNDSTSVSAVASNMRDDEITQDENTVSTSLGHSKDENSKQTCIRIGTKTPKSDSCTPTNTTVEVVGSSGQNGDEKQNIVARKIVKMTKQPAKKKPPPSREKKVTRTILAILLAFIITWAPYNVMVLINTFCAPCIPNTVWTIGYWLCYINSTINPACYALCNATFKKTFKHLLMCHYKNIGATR
Kind of experiment: Selectivity interaction (Eurofins Cerep-Panlabs Safety Screen 44 (GPCRS, Transporters, Ion Channels, Nuclear Receptors, other enzymes)) EUB0000878a CHRM2. To be noted: at 10 µM.

Experiment [3] concerns the target Muscarinic acetylcholine receptor M3 (Homo sapiens, UniProt P20309). Kind of experiment: Selectivity interaction (Eurofins Cerep-Panlabs Safety Screen 44 (GPCRS, Transporters, Ion Channels, Nuclear Receptors, other enzymes)) EUB0000878a CHRM3. To be noted: at 10 µM.
Experiment [4] has as its target T3, Dual specificity mitogen-activated protein kinase kinase 5 (Homo sapiens) (UniProt Q13163).
T3 sequence (whole entry): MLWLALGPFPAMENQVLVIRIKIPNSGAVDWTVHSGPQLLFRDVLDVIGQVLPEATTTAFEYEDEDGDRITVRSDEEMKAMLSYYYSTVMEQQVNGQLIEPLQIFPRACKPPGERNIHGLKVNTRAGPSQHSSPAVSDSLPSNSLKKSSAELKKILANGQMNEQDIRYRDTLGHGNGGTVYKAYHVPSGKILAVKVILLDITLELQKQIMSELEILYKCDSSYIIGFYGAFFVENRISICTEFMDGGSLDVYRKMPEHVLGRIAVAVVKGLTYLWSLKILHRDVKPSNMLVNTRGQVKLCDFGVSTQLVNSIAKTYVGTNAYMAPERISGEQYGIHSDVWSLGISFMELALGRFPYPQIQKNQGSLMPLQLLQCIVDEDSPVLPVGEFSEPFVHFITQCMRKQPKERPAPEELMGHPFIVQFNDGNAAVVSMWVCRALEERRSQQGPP
Kind of experiment: Selectivity interaction (KinomeScan (DiscoverX)) EUB0000878a MAP2K5. Particulars: at 1 µM.

Experiment [5] addresses Mitogen-activated protein kinase kinase kinase 11 (Homo sapiens) (UniProt Q16584). Kind of experiment: Selectivity interaction (KinomeScan (DiscoverX)) EUB0000878a MAP3K11. Particulars: at 1 µM.
The target of experiment [6] is Phosphatidylinositol 4-phosphate 5-kinase type-1 gamma (Homo sapiens) (UniProt O60331). Put plainly: Selectivity interaction (KinomeScan (DiscoverX)) EUB0000878a PIP5K1C. Particulars: at 1 µM.
Sequence of Phosphatidylinositol 4-phosphate 5-kinase type-1 gamma (Homo sapiens) (O60331 whole entry): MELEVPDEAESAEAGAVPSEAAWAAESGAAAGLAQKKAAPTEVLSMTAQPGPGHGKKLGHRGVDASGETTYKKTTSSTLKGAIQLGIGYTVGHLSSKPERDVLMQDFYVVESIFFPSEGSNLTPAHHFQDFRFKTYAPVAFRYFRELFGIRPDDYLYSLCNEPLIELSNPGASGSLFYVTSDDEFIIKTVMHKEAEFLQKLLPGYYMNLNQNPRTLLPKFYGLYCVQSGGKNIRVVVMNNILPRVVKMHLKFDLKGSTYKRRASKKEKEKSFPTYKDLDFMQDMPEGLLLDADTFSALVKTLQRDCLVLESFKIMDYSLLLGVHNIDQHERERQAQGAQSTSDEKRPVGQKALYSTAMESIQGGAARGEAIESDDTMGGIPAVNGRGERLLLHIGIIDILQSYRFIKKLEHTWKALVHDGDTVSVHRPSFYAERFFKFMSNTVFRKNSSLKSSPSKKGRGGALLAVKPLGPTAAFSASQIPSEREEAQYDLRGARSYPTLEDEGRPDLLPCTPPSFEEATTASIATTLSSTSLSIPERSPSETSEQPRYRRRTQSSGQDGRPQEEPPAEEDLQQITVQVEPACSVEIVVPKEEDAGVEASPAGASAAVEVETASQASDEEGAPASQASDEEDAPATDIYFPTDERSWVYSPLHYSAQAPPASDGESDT
Experiment [7] deals with T4, Receptor-interacting serine/threonine-protein kinase 4 (Homo sapiens) (UniProt P57078).
T4 sequence (whole entry): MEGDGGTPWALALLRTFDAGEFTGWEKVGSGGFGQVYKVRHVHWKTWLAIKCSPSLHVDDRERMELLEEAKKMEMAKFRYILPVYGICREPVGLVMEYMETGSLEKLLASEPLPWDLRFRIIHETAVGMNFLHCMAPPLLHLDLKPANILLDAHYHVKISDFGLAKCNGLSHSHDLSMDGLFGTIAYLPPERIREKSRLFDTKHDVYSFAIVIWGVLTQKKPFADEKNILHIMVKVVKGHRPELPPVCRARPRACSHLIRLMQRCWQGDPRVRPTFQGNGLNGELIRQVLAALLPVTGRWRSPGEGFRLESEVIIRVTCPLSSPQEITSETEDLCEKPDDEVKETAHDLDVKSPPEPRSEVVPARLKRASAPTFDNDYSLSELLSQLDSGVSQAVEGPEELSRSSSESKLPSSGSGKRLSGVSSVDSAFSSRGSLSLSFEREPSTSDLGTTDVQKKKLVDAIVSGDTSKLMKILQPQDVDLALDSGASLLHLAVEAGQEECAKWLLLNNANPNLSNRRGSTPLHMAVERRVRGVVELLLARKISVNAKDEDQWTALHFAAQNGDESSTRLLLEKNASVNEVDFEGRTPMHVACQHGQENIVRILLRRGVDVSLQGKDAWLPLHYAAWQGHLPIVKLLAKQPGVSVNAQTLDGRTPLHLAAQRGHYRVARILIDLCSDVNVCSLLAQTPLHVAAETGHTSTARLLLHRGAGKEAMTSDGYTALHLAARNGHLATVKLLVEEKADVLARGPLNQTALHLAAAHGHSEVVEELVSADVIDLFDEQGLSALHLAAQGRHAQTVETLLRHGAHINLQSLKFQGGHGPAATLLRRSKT
Put plainly: Selectivity interaction (KinomeScan (DiscoverX)) EUB0000878a RIPK4. Particulars: at 1 µM.

Experiment [8] addresses Sodium-dependent noradrenaline transporter (Homo sapiens, UniProt P23975). Put plainly: Selectivity interaction (Eurofins Cerep-Panlabs Safety Screen 44 (GPCRS, Transporters, Ion Channels, Nuclear Receptors, other enzymes)) EUB0000878a SLC6A2. To be noted: at 10 µM.
The target of experiment [9] is Sodium-dependent dopamine transporter (Homo sapiens, UniProt Q01959). Put plainly: Selectivity interaction (Eurofins Cerep-Panlabs Safety Screen 44 (GPCRS, Transporters, Ion Channels, Nuclear Receptors, other enzymes)) EUB0000878a SLC6A3. To be noted: at 10 µM.
Sequence of Sodium-dependent dopamine transporter (Q01959 whole entry): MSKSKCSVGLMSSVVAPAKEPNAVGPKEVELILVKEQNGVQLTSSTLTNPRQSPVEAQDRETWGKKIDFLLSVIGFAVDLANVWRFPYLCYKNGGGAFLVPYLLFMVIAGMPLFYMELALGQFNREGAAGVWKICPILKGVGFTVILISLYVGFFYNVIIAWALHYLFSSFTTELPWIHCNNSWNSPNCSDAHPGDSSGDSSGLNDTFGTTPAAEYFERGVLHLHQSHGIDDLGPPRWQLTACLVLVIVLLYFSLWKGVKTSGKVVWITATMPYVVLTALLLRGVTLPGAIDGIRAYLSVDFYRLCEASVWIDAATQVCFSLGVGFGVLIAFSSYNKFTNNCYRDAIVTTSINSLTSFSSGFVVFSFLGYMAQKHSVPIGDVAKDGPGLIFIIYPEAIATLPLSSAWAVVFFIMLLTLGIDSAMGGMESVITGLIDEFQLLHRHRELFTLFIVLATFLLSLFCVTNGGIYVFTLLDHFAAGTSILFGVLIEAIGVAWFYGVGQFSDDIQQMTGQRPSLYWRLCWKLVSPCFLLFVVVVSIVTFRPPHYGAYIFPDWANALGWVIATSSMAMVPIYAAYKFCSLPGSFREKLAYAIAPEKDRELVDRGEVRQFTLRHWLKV
For experiment [10], the target named is T5, Alpha-1B adrenergic receptor (Homo sapiens) (UniProt P35368).
T5 sequence (whole entry): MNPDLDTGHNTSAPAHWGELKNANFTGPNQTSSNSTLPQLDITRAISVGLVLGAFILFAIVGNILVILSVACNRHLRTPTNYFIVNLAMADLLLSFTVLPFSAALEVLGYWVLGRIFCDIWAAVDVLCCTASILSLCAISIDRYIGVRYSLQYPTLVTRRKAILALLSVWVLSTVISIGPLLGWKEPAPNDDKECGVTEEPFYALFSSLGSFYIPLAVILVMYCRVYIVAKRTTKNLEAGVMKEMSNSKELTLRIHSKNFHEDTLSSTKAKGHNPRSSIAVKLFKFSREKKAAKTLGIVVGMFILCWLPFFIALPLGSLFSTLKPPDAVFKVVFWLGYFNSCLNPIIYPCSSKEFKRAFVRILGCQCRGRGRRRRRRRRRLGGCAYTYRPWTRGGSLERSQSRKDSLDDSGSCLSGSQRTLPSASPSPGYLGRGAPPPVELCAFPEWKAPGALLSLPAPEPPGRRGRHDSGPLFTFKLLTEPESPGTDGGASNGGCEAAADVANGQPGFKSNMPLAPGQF
Put plainly: Selectivity interaction (GPCR panel (PDSP screen)) EUB0001066a ADRA1B. To be noted: at 10 µM.

Experiment [11] has as its target 5-hydroxytryptamine receptor 1E (Homo sapiens) (UniProt P28566). Put plainly: Selectivity interaction (GPCR panel (PDSP screen)) EUB0001066a HTR1E. To be noted: at 10 µM.
The target in experiment [12] is T6, 5-hydroxytryptamine receptor 2C (Homo sapiens) (UniProt P28335).
T6 sequence (whole entry): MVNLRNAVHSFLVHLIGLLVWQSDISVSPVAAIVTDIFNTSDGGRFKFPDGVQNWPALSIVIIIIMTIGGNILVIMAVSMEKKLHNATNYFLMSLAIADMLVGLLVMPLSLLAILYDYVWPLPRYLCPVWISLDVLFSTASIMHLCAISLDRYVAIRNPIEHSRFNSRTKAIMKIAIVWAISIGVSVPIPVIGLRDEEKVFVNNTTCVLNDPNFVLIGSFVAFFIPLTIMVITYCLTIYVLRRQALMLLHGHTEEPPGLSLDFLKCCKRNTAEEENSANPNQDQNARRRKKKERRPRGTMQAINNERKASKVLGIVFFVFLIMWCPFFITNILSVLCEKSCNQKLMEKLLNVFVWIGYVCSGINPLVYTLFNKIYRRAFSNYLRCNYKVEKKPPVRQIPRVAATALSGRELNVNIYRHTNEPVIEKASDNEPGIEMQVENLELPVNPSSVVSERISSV
Put plainly: Selectivity interaction (GPCR panel (PDSP screen)) EUB0001066a HTR2C. Particulars: at 10 µM.

The subject of experiment [13] is Mast/stem cell growth factor receptor Kit (Homo sapiens), P10721 [UNDEFINED MUTATION]. Kind of experiment: Selectivity interaction (KinomeScan (DiscoverX)) EUB0001066a KIT. Particulars: at 1 µM.
The target in experiment [14] is T7, Serine/threonine-protein kinase NLK (Homo sapiens) (UniProt Q9UBE8).
T7 sequence (whole entry): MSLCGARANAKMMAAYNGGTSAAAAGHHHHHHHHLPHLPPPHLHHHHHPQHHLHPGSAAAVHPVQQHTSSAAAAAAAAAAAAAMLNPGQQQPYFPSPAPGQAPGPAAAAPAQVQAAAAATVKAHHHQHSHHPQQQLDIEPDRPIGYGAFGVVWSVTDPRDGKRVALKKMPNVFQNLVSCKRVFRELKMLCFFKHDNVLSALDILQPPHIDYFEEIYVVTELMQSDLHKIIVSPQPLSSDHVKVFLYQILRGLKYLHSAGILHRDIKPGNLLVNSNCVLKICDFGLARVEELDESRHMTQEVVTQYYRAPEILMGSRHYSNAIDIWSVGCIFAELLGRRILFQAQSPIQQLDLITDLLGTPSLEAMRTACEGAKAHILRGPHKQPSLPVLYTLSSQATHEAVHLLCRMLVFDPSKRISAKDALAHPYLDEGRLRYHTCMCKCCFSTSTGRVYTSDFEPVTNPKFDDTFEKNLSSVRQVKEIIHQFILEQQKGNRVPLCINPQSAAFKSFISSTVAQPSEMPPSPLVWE
Put plainly: Selectivity interaction (KinomeScan (DiscoverX)) EUB0001066a NLK. Particulars: at 1 µM.

Experiment [15] deals with Serine/threonine-protein kinase pim-2 (Homo sapiens, UniProt Q9P1W9). Put plainly: Selectivity interaction (KinomeScan (DiscoverX)) EUB0001066a PIM2. To be noted: at 1 µM.
Sequence of Serine/threonine-protein kinase pim-2 (Q9P1W9 whole entry, looked up): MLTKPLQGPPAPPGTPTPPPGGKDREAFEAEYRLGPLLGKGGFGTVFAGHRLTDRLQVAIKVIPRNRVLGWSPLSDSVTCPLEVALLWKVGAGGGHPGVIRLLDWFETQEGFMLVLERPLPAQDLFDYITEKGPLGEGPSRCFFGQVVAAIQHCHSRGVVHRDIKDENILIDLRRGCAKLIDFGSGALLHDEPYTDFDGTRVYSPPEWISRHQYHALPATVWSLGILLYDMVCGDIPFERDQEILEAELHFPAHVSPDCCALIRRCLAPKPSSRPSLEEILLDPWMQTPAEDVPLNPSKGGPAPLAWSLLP
In experiment [16] the target is Serine/threonine-protein kinase VRK2 (Homo sapiens) (UniProt Q86Y07). Kind of experiment: Selectivity interaction (KinomeScan (DiscoverX)) EUB0001066a VRK2. Particulars: at 1 µM.
Sequence of Serine/threonine-protein kinase VRK2 (Homo sapiens) (Q86Y07 whole entry): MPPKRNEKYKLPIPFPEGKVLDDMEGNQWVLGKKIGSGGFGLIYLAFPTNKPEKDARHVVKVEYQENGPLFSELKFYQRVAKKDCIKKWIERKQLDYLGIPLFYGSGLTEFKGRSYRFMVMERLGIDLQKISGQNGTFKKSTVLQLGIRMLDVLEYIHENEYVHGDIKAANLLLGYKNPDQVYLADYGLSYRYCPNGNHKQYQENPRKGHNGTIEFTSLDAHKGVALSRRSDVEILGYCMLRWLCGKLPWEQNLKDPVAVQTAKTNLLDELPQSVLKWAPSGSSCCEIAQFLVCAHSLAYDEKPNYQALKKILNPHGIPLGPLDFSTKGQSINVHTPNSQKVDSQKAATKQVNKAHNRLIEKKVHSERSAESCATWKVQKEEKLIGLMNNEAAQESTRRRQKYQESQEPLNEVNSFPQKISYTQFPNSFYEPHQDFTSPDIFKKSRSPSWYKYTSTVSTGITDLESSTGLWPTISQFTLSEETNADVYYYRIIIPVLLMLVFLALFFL

Sequence of Mitogen-activated protein kinase kinase kinase 11 (Homo sapiens) (Q16584 whole entry, looked up): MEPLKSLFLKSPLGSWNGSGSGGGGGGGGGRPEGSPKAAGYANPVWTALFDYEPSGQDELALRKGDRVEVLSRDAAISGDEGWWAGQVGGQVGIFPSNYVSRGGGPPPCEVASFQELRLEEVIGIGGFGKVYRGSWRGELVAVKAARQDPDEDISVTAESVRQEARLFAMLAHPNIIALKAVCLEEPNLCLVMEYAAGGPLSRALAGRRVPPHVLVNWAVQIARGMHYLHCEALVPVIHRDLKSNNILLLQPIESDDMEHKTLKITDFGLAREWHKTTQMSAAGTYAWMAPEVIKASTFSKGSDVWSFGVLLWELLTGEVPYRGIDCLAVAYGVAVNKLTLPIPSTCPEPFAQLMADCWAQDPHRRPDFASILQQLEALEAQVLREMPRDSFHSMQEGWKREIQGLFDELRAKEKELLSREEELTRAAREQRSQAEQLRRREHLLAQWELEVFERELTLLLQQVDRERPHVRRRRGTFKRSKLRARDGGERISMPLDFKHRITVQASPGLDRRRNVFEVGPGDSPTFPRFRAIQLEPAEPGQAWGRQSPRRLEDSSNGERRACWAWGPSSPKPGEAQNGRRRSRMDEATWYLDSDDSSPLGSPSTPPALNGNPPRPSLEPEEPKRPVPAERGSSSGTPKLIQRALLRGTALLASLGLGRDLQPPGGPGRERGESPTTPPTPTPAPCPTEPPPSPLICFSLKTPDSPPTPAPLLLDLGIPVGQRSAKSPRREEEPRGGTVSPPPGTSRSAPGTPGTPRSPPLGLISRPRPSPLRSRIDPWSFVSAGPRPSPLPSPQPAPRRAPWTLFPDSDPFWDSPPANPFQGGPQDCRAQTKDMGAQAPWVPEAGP
Sequence of 5-hydroxytryptamine receptor 1E (Homo sapiens) (P28566 whole entry): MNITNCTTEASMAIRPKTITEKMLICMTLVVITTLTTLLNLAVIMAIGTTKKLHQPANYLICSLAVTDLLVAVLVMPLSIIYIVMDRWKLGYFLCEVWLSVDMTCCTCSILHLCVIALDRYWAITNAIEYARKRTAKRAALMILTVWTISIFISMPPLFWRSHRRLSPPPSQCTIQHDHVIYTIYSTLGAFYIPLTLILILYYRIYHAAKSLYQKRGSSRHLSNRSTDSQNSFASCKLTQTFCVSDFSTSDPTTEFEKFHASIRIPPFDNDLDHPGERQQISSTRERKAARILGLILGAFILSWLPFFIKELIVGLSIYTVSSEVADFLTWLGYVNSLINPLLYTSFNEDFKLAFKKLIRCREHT
Sequence of Muscarinic acetylcholine receptor M3 (P20309 whole entry, looked up): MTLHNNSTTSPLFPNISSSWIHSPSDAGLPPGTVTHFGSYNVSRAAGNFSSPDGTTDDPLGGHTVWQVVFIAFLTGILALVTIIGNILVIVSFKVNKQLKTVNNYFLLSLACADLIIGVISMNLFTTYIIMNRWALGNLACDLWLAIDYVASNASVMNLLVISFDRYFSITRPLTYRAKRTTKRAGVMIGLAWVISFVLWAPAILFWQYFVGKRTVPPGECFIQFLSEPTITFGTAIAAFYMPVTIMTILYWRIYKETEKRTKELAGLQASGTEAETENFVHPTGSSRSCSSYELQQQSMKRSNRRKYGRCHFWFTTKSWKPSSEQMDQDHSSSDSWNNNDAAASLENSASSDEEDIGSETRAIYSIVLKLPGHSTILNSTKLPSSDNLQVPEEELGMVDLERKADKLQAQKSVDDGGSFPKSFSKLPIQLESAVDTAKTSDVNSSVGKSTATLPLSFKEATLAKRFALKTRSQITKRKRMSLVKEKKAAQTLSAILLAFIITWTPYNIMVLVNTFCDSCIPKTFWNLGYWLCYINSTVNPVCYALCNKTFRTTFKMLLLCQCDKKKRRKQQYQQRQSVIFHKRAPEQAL
Sequence of Sodium-dependent noradrenaline transporter (P23975 whole entry): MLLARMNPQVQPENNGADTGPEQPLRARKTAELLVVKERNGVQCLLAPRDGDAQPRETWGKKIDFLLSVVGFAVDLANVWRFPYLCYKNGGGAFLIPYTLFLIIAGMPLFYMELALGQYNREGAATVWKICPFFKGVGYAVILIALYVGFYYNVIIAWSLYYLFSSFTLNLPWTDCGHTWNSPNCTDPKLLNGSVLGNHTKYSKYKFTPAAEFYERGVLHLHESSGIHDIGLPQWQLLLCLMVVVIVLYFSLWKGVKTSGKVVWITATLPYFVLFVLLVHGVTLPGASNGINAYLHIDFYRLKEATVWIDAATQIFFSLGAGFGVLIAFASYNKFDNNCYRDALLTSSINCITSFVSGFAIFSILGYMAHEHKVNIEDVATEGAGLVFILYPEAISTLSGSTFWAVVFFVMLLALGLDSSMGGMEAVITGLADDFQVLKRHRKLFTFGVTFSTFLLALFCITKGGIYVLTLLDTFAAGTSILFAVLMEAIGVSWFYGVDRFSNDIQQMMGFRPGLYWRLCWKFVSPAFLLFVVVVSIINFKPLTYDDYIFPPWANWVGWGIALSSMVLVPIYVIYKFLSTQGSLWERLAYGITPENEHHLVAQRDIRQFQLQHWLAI

Regarding `CC(C)c1cc(Nc2nc(N3CCC[C@H](N)C3)ncc2C(N)=O)cc(C(C)C)n1`, the % of inhibition or stimulation was found to be 84% in experiment [1]; 70% in experiment [2]; 84% in experiment [3]; 87% in experiment [8]; 100% in experiment [9]. Further, the % of control in experiment [4] came to 4.5%; in experiment [5], 99%; in experiment [6], 0%; in [7], 0.95%.
Consider `Cc1nccc(COC(=O)N2C[C@@H]3[C@@H](CNC(=O)c4ccc5[nH]nnc5c4)[C@@H]3C2)n1`, for which the % of inhibition amounted to 30.2% in experiment [10], 31.8% in experiment [11] and 31.1% in experiment [12]. For the same compound, the % of control in [13] is 41%; in [14] it was 41%; in [15], 0%; in experiment [16], 29%.
